Experimental data reported in ChEMBL document CHEMBL5634189, “Synthesis and in Vitro Evaluation of CAPE Derivatives as Ferroptosis Inducers in Triple Negative Breast Cancer” (ACS Med Chem Lett, 2024).
Active and inactive are the calls of the source. The rule behind the calls is not given here. Where a SMILES comes first, the peptide text is derived from it. The star is where a group is joined. Cbz = O=C(OCc1ccccc1)*; CH2F = FC*

Legend:
MDA-MB-231 [1] = experiment: Cytotoxicity against human MDA-MB-231 cells assessed as reduction in cell viability at 50 uM incubated for 48 hrs by MTT assay; assay type: functional, cell-based
MDA-MB-231 [2] = experiment: Upregulation of HO-1 expression in human MDA-MB-231 cells at 10 uM incubated for 18 hrs by ELISA analysis; assay type: functional, cell-based
[3] = target: T1, Heme oxygenase 1 (Homo sapiens) (UniProt P09601); experiment: Induction of HO-1 enzymatic activity in human MDA-MB-231 cells assessed as increase in bilirubin formation at 10 uM incubated for 18 hrs in presence of NADPH by double-beam spectrophotometer analysis; assay type: cell-based; details: filed as activator
T1 sequence (whole entry): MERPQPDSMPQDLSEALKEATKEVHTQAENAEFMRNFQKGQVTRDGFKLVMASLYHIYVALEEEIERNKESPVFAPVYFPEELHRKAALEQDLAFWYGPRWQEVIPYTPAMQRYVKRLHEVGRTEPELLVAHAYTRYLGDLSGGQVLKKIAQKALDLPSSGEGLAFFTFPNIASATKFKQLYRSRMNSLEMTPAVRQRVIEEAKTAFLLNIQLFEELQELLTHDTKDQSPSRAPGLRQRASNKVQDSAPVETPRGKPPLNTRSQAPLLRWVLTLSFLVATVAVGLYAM

MDA-MB-231 [4] = experiment: Induction of ferroptosis in human MDA-MB-231 cells assessed as increase in lipid hydroperoxide level at 50 uM incubated for 30 mins in presence of ferrostatin-1; assay type: functional, cell-based
MDA-MB-231 [5] = experiment: Induction of ferroptosis in human MDA-MB-231 cells assessed as reduction in GSH content at 50 uM incubated for 20 mins in presence of ferrostatin-1 by spectrophotometric assay; assay type: functional, cell-based
Cell membrane [6] = experiment: Induction of mitochondrial membrane dysfunction in human MDA-MB-231 cells assessed as decrease in red fluorescence intensity incubated for 6 hrs by JC-1 staining based fluorescence microscopic analysis; assay type: cell membranes
MDA-MB-231 [7] = experiment: Induction of ROS production in human MDA-MB-231 cells assessed as increase in fluorescence intensity measured for 1 to 6 hrs; assay type: functional, cell-based; details: time 1-6 hrs
MDA-MB-231 [8] = experiment: Induction of ferroptosis in human MDA-MB-231 cells assessed as reduction in cell viability at 50 uM incubated for 48 hrs in presence of ferrostatin-1 by MTT assay; assay type: functional, cell-based
MDA-MB-231 [9] = experiment: Induction of ferroptosis in human MDA-MB-231 cells assessed as effect on IL-6 level at 50 uM incubated for 5 to 18 hrs in presence of ferrostatin-1 by ELISA analysis; assay type: functional, cell-based; details: time 5-18 hrs
Cell membrane [10] = experiment: Induction of mitochondrial membrane dysfunction in human MDA-MB-231 cells assessed as increase in green fluorescence intensity incubated for 6 hrs by JC-1 staining based fluorescence microscopic analysis; assay type: cell membranes
MDA-MB-231 [11] = experiment: Induction of ferroptosis in human MDA-MB-231 cells assessed as reduction in cell viability at 10 to 50 uM incubated for 24 hrs by MTT assay; assay type: functional, cell-based; details: dose 10-50 µM
MDA-MB-231 [12] = experiment: Induction of ferroptosis in human MDA-MB-231 cells assessed as increase IL-6 level at 50 uM incubated for 5 to 18 hrs by ELISA analysis; assay type: functional, cell-based; details: time 5-18 hrs
MDA-MB-231 [13] = experiment: Induction of ferroptosis in human MDA-MB-231 cells assessed as decrease in GSH content at 10 to 50 uM incubated for 24 hrs by spectrophotometric assay; assay type: functional, cell-based; details: dose 10-50 µM
MDA-MB-231 [14] = experiment: Cytotoxicity against human MDA-MB-231 cells assessed as reduction in cell viability at 50 uM incubated for 48 hrs in presence of ferrostatin-1 by MTT assay; assay type: functional, cell-based
MDA-MB-231 [15] = experiment: Induction of ferroptosis in human MDA-MB-231 cells assessed as increase in intracellular Fe2+ level at 10 to 50 uM incubated for 18 hrs by colorimetric assay; assay type: functional, cell-based; details: dose 10-50 µM
MDA-MB-231 [16] = experiment: Cytotoxicity against human MDA-MB-231 cells assessed as reduction in cell viability at 50 uM incubated for 48 hrs in presence of Z-VAD-FMK by MTT assay; assay type: functional, cell-based

| Activity [3] | SMILES | Activity (MDA-MB-231 [11]) | also measured |
| --- | --- | --- | --- |
|  | CCOC(=O)c1ccc(NC2CCCCC2)c(N)c1 |  | Activity (MDA-MB-231 [1]): Active |
| Active | O=C(/C=C/c1ccccc1)OCCc1c[nH]c2ccccc12 | Active | Activity (MDA-MB-231 [2]): Active; Activity (MDA-MB-231 [4]): Active; Activity (MDA-MB-231 [5]): Active; Activity (Cell membrane [6]): Active; Activity (MDA-MB-231 [7]): Active; Activity (MDA-MB-231 [8]): Active; Activity (MDA-MB-231 [9]): inactive; Activity (Cell membrane [10]): Active |
| Active | O=C(/C=C/c1ccc(O)c(O)c1)OCCc1ccc2c(c1)OCO2 | Active |  |
| Active | COc1ccc(CCOC(=O)/C=C/c2ccc(O)c(O)c2)c(OC)c1 | Active |  |
| Active | O=C(/C=C/c1ccc(O)c(O)c1)OCCc1c[nH]c2ccccc12 | Active |  |
| Active | COc1ccc(CCOC(=O)/C=C/c2ccccc2)cc1OC | Active |  |
| Active | COc1ccc(CCOC(=O)/C=C/c2ccc(O)c(O)c2)cc1 | Active |  |
| Active | COc1cc(CCOC(=O)/C=C/c2ccc(O)c(O)c2)cc(OC)c1 | Active | Activity (MDA-MB-231 [8]): Active |
| Active | COc1ccc(CCOC(=O)/C=C/c2ccc(O)c(O)c2)cc1OC | Active | Activity (MDA-MB-231 [8]): Active |
| Active | COc1ccc(OC)c(CCOC(=O)/C=C/c2ccc(O)c(O)c2)c1 | Active |  |
| Active | O=C(/C=C/c1ccc(O)c(O)c1)OCCc1ccccc1 |  | Activity (MDA-MB-231 [1]): Active; Activity (MDA-MB-231 [12]): Active; Activity (MDA-MB-231 [13]): Active; Activity (MDA-MB-231 [14]): Active; Activity (MDA-MB-231 [15]): Active; Activity (MDA-MB-231 [16]): Active |
|  | CC(C)[C@H](NC(=O)OCc1ccccc1)C(=O)N[C@@H](C)C(=O)N[C@@H](CC(=O)O)C(=O)CF (Cbz-Val-Ala-Asp-CH2F) |  | Activity (MDA-MB-231 [1]): Active |
